# Experimental data as given in patent US7375203B2, “Canine cold- and menthol-sensitive receptor 1” (Janssen Pharmaceutica N.V., priority 2004, dated 2008).
# Entries after “also recorded” stand apart in the source; their conditions may differ.
# What was measured:
# cCMR1 channel = assay: Whole-cell patch clamp recording of HEK293 cells stably transfected with cCMR1; type: cell-based, canine
# Procedure: HEK293 cells stably transfected with canine cCMR1 were cultured in DMEM supplemented with 10% fetal bovine serum, 100 units/ml penicillin, 100 μg/ml streptomycin and 1 mg/ml G418. Cells were maintained at 37° C. and in 5% CO2. Unless otherwise indicated, the standard extracellular solution used for recording contained (in mM): NaCl, 132; EGTA, 1; KCl, 5.4; MgCl2, 0.8; HEPES, 10; glucose, 10; pH=7.4. In experiments where the extracellular solution contained Ca^2+, the extracellular solution used was one of the following (in mM), depending on the Ca^2+ concentration used: (1) NaCl, 132; CaCl2, 0.1 or 1.8; KCl, 5.4; MgCl2, 0.8; HEPES, 10; glucose, 10; pH=7.4; (2) NaCl, 116; CaCl2, 10; KCl, 5.4; MgCl2, 0.8; HEPES, 10; glucose, 10; pH=7.4. The intracellular solution used to fill recording pipettes contained (in mM): CsCl, 145; EGTA, 5; HEPES, 10; glucose, 5; pH=7.4. Recordings were performed using the conventional whole-cell patch clamp technique, 1-2 days after plating cells onto glass coverslips at densities appropriate for single cell recording. Currents were amplified by a patch clamp amplifier and filtered at 2 kHz (Axopatch 200B, Axon Instruments). […] Recordings involving agonist stimulations were performed at 22° C. In experiments where temperatures were varied, temperature ramps were generated by heating/cooling the perfusate in a dual in-line heater/cooler (Model SC-20, Warner Instruments, Hamden, Conn.) controlled by a bipolar temperature controller (Model CL-100, Warner Instruments). The temperature in the vicinity of the recorded cell was measured with a custom-made miniature thermo-microprobe connected to a monitoring thermometer (Model TH-8, Physitemp, Clifton, N.J.), and sampled using Digidata 1322A and pClamp 9.0 (Axon Instruments, Union City, Calif.), as were the currents concurrently measured in the whole-cell patch clamp mode. Two voltage protocols were used in these studies. The first involved a 600 ms voltage ramp from −100 mV to +60 mV at a sampling rate of 10 kHz. This voltage pulse was repeated once every 5 seconds. The cell was held at −100 mV between voltage pulses. In the second protocol, the cell was held at −80 mV and the current was continuously sampled (at 100 Hz) at this holding potential.
# canine CMR1 (cCMR1) = assay: Cell-based calcium influx (FLIPR) assay on HEK293 cells stably transfected with cCMR1; conditions: for calcium-mediated fluorescence (calcium influx): added at 200 seconds, room temperature
# Procedure: The following day, the cells were loaded with buffer and calcium dye (Molecular Devices, Sunnyvale, Calif.) in a final volume of 40 μl and incubated for 30 minutes at room temperature. The fluorescence intensity was measured by FLIPR before and after the addition of menthol or icilin, which were added to the cells at a concentration of 100 μM or 10 μM each, respectively.
# HEK293 cells stably transfected with cCMR1 were seeded in a 384 will plate at a concentration of […] and incubated overnight at 37° C./5% CO2. The following day the cells were loaded with calcium dye and incubated for 30 minutes at room temperature. The calcium-mediated fluorescence intensity was measured by FLIPR before and after the compound was administered to the cells.
structure (smiles),measurement,setting,value
[Ca+2] [extracellular Ca^2+],desensitization of menthol-activated cCMR1 current,"cCMR1 channel; 1.8 mM extracellular Ca^2+, 100 μM menthol, −80 mV",desensitization readily occurred
same,voltage dependence of inhibition of cCMR1 current amplitude,"cCMR1 channel; 10 mM extracellular Ca^2+, channel activated by 1 mM menthol",strongly inhibited the current amplitude at hyperpolarized potentials
same,IC50,"cCMR1 channel; voltage-clamped at −80 mV, channel activated by 1 mM menthol, logistic best fit, read-out: IC50 of inhibition of cCMR1 current amplitude by extracellular Ca^2+",1600 µM
O=C1NC(c2cccc([N+](=O)[O-])c2)=CCN1c1ccccc1O [icilin],calcium-mediated fluorescence (activation of cCMR1),canine CMR1 (cCMR1); 100 nM icilin (positive control),sensitive; also recorded: increase in calcium-mediated fluorescence
same,calcium-mediated fluorescence (calcium influx),canine CMR1 (cCMR1); 10 μM icilin,increase in calcium-mediated fluorescence
same,"whole-cell current amplitude, rectification and reversal potential","cCMR1 channel; icilin (1 μM), voltage ramp protocol, compared with the menthol results",Qualitatively similar results
CC1CCC(C(C)C)C(O)C1 (centres unmarked) [menthol],calcium-mediated fluorescence (calcium influx),canine CMR1 (cCMR1); 100 μM (−)-menthol,increase in calcium-mediated fluorescence
same,reversal potential of the menthol-activated current,"cCMR1 channel; 100 μM menthol, voltage ramp protocol",~0 mV
same,whole-cell current amplitude,"cCMR1 channel; 100 μM menthol, voltage ramp −100 mV to +60 mV, 22° C., compared to buffer control",large increase of the whole-cell current amplitude
same,current activated in the absence of extracellular Ca^2+,"cCMR1 channel; 100 μM menthol, −80 mV, no extracellular Ca^2+",activated a non-desensitizing current
C=CCN=C=S [mustard oil],calcium-mediated fluorescence (activation of cCMR1),canine CMR1 (cCMR1); 1 mM mustard oil,activated; also recorded: increase in calcium-mediated fluorescence
